Several values for one entry are separate records, joined by “and”; a condition that tells them apart may be missing. Identical values can stand only once.
Target: T1, Parkin ligase (Homo sapiens, UniProt O60260)
T1 construct: Enzyme: Parkin-His tagged 203 μM (10.5 mg/ml)
T1 sequence (O60260 1-465): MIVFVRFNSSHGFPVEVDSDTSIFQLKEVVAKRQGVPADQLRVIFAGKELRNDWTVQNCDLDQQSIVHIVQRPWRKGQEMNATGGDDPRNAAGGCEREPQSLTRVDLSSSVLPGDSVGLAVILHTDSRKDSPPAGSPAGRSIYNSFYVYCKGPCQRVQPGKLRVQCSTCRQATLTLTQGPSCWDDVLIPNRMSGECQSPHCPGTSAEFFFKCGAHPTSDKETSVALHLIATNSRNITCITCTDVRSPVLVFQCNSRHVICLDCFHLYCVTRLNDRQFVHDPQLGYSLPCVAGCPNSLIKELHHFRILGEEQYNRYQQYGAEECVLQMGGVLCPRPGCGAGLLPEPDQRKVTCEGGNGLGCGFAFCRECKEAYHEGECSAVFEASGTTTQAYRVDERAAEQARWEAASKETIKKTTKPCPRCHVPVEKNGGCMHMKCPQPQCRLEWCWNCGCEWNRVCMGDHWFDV
Test: Activity-based probe assay using an ubiquitin vinyl sulfone probe (TR-FRET)
Type: biochemical
Details: activation of heat activated Parkin, HA-Ub-VS probe; read-out: Probe Assay EC50 (μM) [Example 2]
Method: An Ubiquitin vinyl sulfone probe can be used that irreversibly binds to the active site cysteine of Parkin ligase. Covalent attachment of the probe to the Parkin can be monitored by TR-FRET. Candidate activator compounds can be identified by increasing the activity of Parkin ligase due to an increase in TR-FRET signal. Screening for activating compounds can be distinguished from the controls as follows:
100% activation signal=Heat activated Parkin+100 nM control activator in DMSO. 0% activation signal=Heat activated Parkin+DMSO only. Parkin activators can be identified by an increase of the 0% activation signal TR-FRET signal.
• Assay Plate: White 384 well plate (Corning 3572) • Enzyme: Parkin-His tagged 203 μM (10.5 mg/ml) • Probe: Ubiquitin vinyl-sulfone (HA-Ub-VS Boston Biochem U-212) • DMSO: DMSO (Sigma cat # D4540-100ML) • Reaction Buffer: 50 mM HEPES (pH 8.5), 150 mM NaCl, 0.01% Tween 20, 0.1% BSA • Detection Buffer: 50 mM HEPES (pH 8.5), 150 mM NaCl, 0.01% Tween 20, 0.1% BSA, 800 mM KF • Detection Reagent A: 2.6 nM Anti-6HIS-Eu cryptate and 40 nM Anti-HA-XL665 in detection buffer • Eu cryptate: Anti-6HIS-Eu cryptate (CisBio 61HISKLA) • XL665: Anti-HA-XL665 (CisBio 610HAXLA) Enzyme Reaction (15 min Pre Incubation Parkin with Activator Only) • Parkin: 40 nM • HA-Ub-VS Probe: 70 nM • Activator/DMSO: 2× Activator/2% DMSO • Reaction time: 60 minutes • Temperature: 22° C. • Total volume: 10 μl reaction
• Take 10 μl of Enzyme Reaction above and add 10 μl detection Reagent A under the following conditions: • Reaction time: 60 minutes • Temperature: 22° C. • Total volume: 20 μl
Assay procedure (Using HP D-300 compound dispenser and Bravo for the operation):
1) Heat activate Parkin in reaction buffer (500 μl/1.5 ml tube: Eppendorf Thermomixer 5 minutes, 400 rpm at 58° C. and put on ice until needed). 2) Load assay plate wells with 4.8 μl 84.5 nM Parkin in reaction buffer by use of Bravo. 3) Deliver 0.2 μl 200× activator candidates in DMSO by use of HP D-300 compound dispenser. Highest 200× concentration=20 μm and then twofold dilutions. 4) Spin 1000 rpm, 2 minutes, at room temp. 5) Incubate plate for 15 minutes at room temp. 6) Add 5 μl 140 nM HA-Ub-VS Probe in reaction buffer by use of Bravo. 7) Spin 1000 rpm, 2 minutes, at room temp. 8) Incubate plate for 60 minutes at room temp. 9) Add 10 μl 2.6 nM Anti-6HIS-Eu cryptate and 40 nM Anti-HA-XL665 in detection buffer. 10) Spin 1000 rpm, 2 minutes, at room temp. 11) Incubate plate for 60 minutes at room temp. 12) Read plates on Perkin Elmer Envision instrument with the following parameters:
LANCE dual laser protocol loaded into the Envision® software
Top Mirror: LANCE/DELFIA Duel/Bias (Bar code 446) Emission Filter: APC 665 EM (Bar code 205) 2nd Emission Filter: Europium 615 EM (Bar code 203) Read […] (channel 1) and 615 nm (channel 2) wavelengths on Envision®
Data Analysis: The Data can be read in CSV files. There are two tables in those CSV files, which are the values of 655 nm (channel 1) and 615 nm (channel 2) wavelengths respectively. The data is converted to an HTRF Ratio=(Channel 1/Channel 2)*10,000
The average of all the 0 uM controls (DMSO only)=BKGD (Background—0% activation). Subtract BKGD from each HTRF Ratio value=HTRF-BKGD. The average of all the […] 100 nM control activator in DMSO controls=Max (100% activation). The following equation is then used to calculate % Activation for each well/candidate as follows: % Activation=(HTRF−BKGD/Max)*100.
Graphpad Prisim was used with Transform X values: X=Log(X) and nonlinear regression (dose-response-stimulation): Log(agonist) vs Response—variable slope (four parameters) with constrains set to Bottom=0 and Top=100.

| SMILES | EC50 |
| --- | --- |
| COc1ccc(Cn2ccc(-c3cnn4c(S)cc(C)nc34)cc2=O)cc1 [Compound B3] | 46 µM |
| Cc1nn2c(O)cc(C(C)(C)C)nc2c1-c1ccc(Cl)cc1 [F] | 16.7 µM |
| Cc1nn2c(O)c(CC(C)C)cnc2c1-c1ccccc1 [Compound I3] | > 100 µM |
| Cc1nc2c(C#N)c(C)nn2c(S)c1Cc1ccccc1 [OO] | > 100 µM |
| Cc1nc2c(-c3cccnc3)c(C)nn2c(O)c1Cc1ccccc1 [Compound L3] | > 100 µM |
| Cc1nn2c(S)cc(C(C)C)nc2c1-c1ccccc1 [H] | > 100 µM |
| Cc1cc(S)n2nc(C)c(-c3ccc(Cl)cc3)c2n1 [N] | > 100 µM |
| Cc1cc(C)c2c(n1)nn1c(S)c(Cc3ccccc3)c(C)nc21 [RR] | 27.3 µM |
| Sc1c(Cc2ccccc2)cnc2c(-c3ccccc3)cnn12 [Compound Z, 6-benzyl-3-phenyl-pyrazolo[1,5-a]pyrimidin-7-thiol] | 5.9 µM |
| Cc1cc2nc(C)c(Cc3ccc(Cl)cc3)c(O)n2n1 [Compound P, 6-[(4-chlorophenyl)methyl]-2,5-dimethyl-pyrazolo[1,5-a]pyrimidin-7-ol] | 61.4 µM |
| Oc1c(Cc2ccccc2)cnc2c(-c3ccccc3)cnn12 [Compound W, 6-benzyl-3-phenyl-pyrazolo[1,5-a]pyrimidin-7-ol] | > 100 µM |
| COc1ccccc1-c1c(C)nn2c(S)cc(C)nc12 [Compound D] | > 100 µM |
| Cc1nc2c(-c3ccncc3)c(C)nn2c(S)c1Cc1ccccc1 [MM] | 7.6 µM |
| Cc1nc2c(C(F)(F)F)c(C)nn2c(S)c1Cc1ccccc1 [LL] | 34.1 µM |
| Cc1cc(S)n2ncc(-c3cnn(C)c3)c2n1 [VV] | > 100 µM |
| Cc1nc2c(-c3ccccn3)c(C)nn2c(O)c1Cc1ccccc1 [FF] | 17.8 µM |
| Cc1nc2c(C3CCN(C)CC3)c(C)nn2c(O)c1Cc1ccccc1 [Compound O3] | > 100 µM |
| Cc1ccc(-c2cnn3c(O)cc(C)nc23)cc1 [Compound H3] | 51 µM |
| Cc1nn2c(O)c3c(nc2c1-c1ccccc1)CCN(C)C3 [Compound K3] | > 100 µM |
| Cc1nc2c(-c3ccccc3)c(C)nn2c(S)c1Cc1ccccn1 [Compound BB, 2,5-dimethyl-3-phenyl-6-(2-pyridylmethyl)pyrazolo[1,5-a]pyrimidine-7-thiol] | 14.9 µM |
| Cc1cc(S)n2ncc(-c3ccccc3)c2n1 [Compound C] | 75.3 µM |
| Cc1cc(O)n2ncc(-c3cccc(N(C)C)c3)c2n1 [Compound M3] | 96.3 µM |
| Cc1nn2c(S)c3c(nc2c1-c1ccccc1)COC3 [XX] | 55.6 µM |
| Cc1nc2c(-c3ccccc3)c(C)nn2c(O)c1Cc1ccccc1 [T] | 49.1 µM |
| Cc1cc2nc(C)c(Cc3ccccc3)c(O)n2n1 [Q] | > 100 µM |
| Cc1nn2c(S)c3c(nc2c1-c1ccccc1)CCCC3 [Compound K] | 3.3 µM and 3.6 µM |

| SMILES | EC50 |
| --- | --- |
| CCc1nn2c(S)cc(C)nc2c1-c1ccc(F)cc1 [Compound I] | > 100 µM |
| Cc1nn2c(O)c(Cc3ccccc3)cnc2c1-c1ccccc1 [Compound V, 6-benzyl-2-methyl-3-phenyl-pyrazolo[1,5-a]pyrimidin-7-ol] | > 100 µM |
| Cc1nn2c(S)c3c(nc2c1-c1ccccc1)CCOC3 [WW] | 71 µM |
| Cc1nc2c(-c3ccccc3)c(C)nn2c(O)c1Cc1ccccn1 [Compound Y, 2,5-dimethyl-3-phenyl-6-(2-pyridylmethyl)pyrazolo[1,5-a]pyrimidin-7-ol] | > 100 µM |
| Cc1nc2c(C3CCN(C)CC3)c(C)nn2c(S)c1Cc1ccccc1 [Compound N3] | > 100 µM |
| Cc1cc(C)c2c(n1)nn1c(O)c(Cc3ccccc3)c(C)nc21 [NN] | > 100 µM |
| Cc1cc(S)n2ncc(-c3cc[nH]c(=O)c3)c2n1 [Compound A3] | > 100 µM |
| Cc1cc(O)n2nc(C)c(-c3ccc(Cl)cc3)c2n1 [M] | > 100 µM |
| Cc1nc2c(C#N)c(C)nn2c(O)c1Cc1ccccc1 [Compound GG, 6-benzyl-7-hydroxy-2,5-dimethyl-pyrazolo-[1,5-a]pyrimidine-3-carbonitrile] | > 100 µM |
| Cc1nc2c(C(F)(F)F)c(C)nn2c(O)c1Cc1ccccc1 [JJ] | > 100 µM |
| Cc1nn2c(S)c(Cc3ccccc3)cnc2c1-c1ccccc1 [Compound DD, 6-benzyl-2-methyl-3-phenyl-pyrazolo[1,5-a]pyrimidin-7-thiol] | 6.5 µM |
| CCCc1cc(S)n2nc(C)c(-c3ccccc3)c2n1 [Compound B] | > 100 µM |
| Cc1nc2c(C(=O)N(C)C)c(C)nn2c(S)c1Cc1ccccc1 [II] | > 100 µM |
| CC(C)(C)c1cc(O)n2ncc(-c3ccc(Cl)cc3)c2n1 [Compound G] | 53.5 µM |
| Cc1nc2c(-c3ccccc3)c(C)nn2cc1Cc1ccccc1 [QQ] | > 100 µM |
| Cc1cc2nc(C)c(Cc3ccc(Cl)cc3)c(S)n2n1 [Compound R, 6-[(4-chlorophenyl)methyl]-2,5-dimethyl-pyrazolo[1,5-a]pyrimidine-7-thiol] | 18.2 µM |
| CNc1c2c(nc3c(-c4ccccc4)c(C)nn13)CCN(C)C2 [YY] | > 100 µM |
| Cc1ccc(-c2cnn3c(O)c4c(nc23)CN(C)CC4)cc1 [Compound P3] | > 100 µM |
| Cc1cc2nc(C)c(Cc3ccccc3)c(S)n2n1 [S] | 27.9 µM |
| Cc1nc2c(-c3ccccc3)c(C)nn2c(O)c1Cc1ccncc1 [Compound X, 2,5-dimethyl-3-phenyl-6-(4-pyridylmethyl)pyrazolo[1,5-a]pyrimidin-7-ol] | > 100 µM |
| Cc1nc2c(-c3ccccn3)c(C)nn2c(S)c1Cc1ccccc1 [HH] | 74.2 µM |
| CC(C)(C)c1cc(O)n2ncc(-c3ccccc3)c2n1 [J] | 35.4 µM |
| Cc1nc2c(C(=O)N(C)C)c(C)nn2c(O)c1Cc1ccccc1 [EE] | > 100 µM |
| Cc1cc(O)n2ncc(-c3ccc(F)cc3)c2n1 [PP] | > 100 µM |
| COc1ccc(-c2cnn3c(O)cc(C)nc23)cc1 [Compound J3] | > 100 µM |
| Cc1cc(S)n2nc(C)c(-c3ccccc3)c2n1 [O] | > 100 µM |

Reference: patent US20210163489A1, “PYRAZOLOPYRIMIDINE DERIVATIVES AND THE COMPOSITIONS AND METHODS OF TREATMENT REGARDING THE SAME” (NysnoBio Ireland DAC, priority 2016, published 2021)
